Legend:
[1] = Treating a bronchitis patient with GTA capsules; conditions: softgel GTA 12 ml daily for a total of 5 days
[2] = Treating asthmatic patients with GTA capsules
Procedure: These patients where orally administered softgel capsules filled with GTA at a daily dose of 12 ml, either 4 ml three times a day or 6 ml twice a day, during or immediately after meal. Treatment duration was 7 days.

tumor-model = conditions: GTA alone versus combination with chemotherapy (TMZ); WO13013061; cited from earlier work
[3] = Treating lung cancer patient with breathing difficulties
Procedure: The patient started taking pure glyceryl-triacetate (GTA), encapsulated in hard-shell Vegicaps (produced by Capsugel), 12 ml a day, divided among 3 meals. After 3 days the patient increased the dose to 24 ml a day and after additional 3 days they consumed a daily dose of 30 ml GTA for a period of 1 month.

[4] = Treating Long-COVID (post-corona) patients with GTA capsules; type: in vivo, human; conditions: softgel GTA 12 ml daily oral
Source text: Long COVID is a range of symptoms that can last weeks or months after first being infected with the virus that causes COVID-19 or can appear weeks after infection. 5 Long-Covid subjects who recovered from COVID-19 infection (=became PCR negative) but still have significant breathing problems that compromised their daily physical activities. […] Treatment duration was between 5-10 days, according to recovery rate.

[5] = system: SARS-Cov2 (COVID-19 infection); assay: Treating SARS-Cov2 infected patients (COVID-19 infection); type: in vivo, human; conditions: all 11 patients, age 60-89, PCR positive with respiratory symptoms; softgel GTA 12 ml daily oral, 5-10 days, no other medication
Source text: Eleven subjects, age 60-89 with various comorbidities, who were positive for COVID-19 infection by the PCR test and already developed respiratory-related symptoms of the disease. […] Treatment duration was between 5-10 days, according to recovery rate.

[6] = aqueous solution; cited from earlier work
swine flu infection = conditions: human, in vivo, po
[7] = Madhavarao 2009, Segel 2011; cited from earlier work

CC(=O)OCC(COC(C)=O)OC(C)=O [GTA, Glyceryltriacetate]
patient-reported coughing and breathing [1]: less to no coughing, improved breathing | duration of the beneficial effect ([2]; after 7 days of GTA 12 ml daily, then 2nd round required): 1-8 weeks | patient-reported breathing ([2]; all 4 chronic asthmatic patients, softgel GTA 12 ml daily oral, 7 days, including giving up inhalation): outstanding improvement | improvement in in-vivo tumor-model (tumor-model): not by GTA by itself | tumor mass on CT ([3]; GTA up to 30 ml daily for 1 month): no improvement in tumor mass | self-reported breathing ([3]; within 2 days after start of GTA 12 ml a day): breathing is much easier | use of inhaled Salbutamol ([3]; within a week, GTA 12 ml then 24 ml a day): stopped taking Salbutamol | walking distance without taking a break ([3]; within a week, before treatment not more than ~50 m): hundreds of meters | time to recovery from breathing problems ([4]; 5 Long-Covid patients): 5 to 10 days | recovery from breathing problems ([4]; all 5 Long-Covid patients, no other medication): fully or almost fully recovered | recovery from the disease [5]: fully recovered | water solubility limit [6]: 0.25% | patient's healing compared to non-treated patients (swine flu infection): acceleration of patient's healing | therapeutic benefit in Canavan disease clinical trials [7]: failed to show any therapeutic benefit
